Laboratory results published in US8741884B2, “Compounds for the treatment of hepatitis C” (priority 2010, dated 2014).

What follows are compounds tested on HCV pseudoparticles (genotype 1a HCV E1 and E2 envelope, H77C isolate) (assay: microbe, parasite or virus in culture). Conditions: Hepatitis C virus, Huh-7, 48 h, class symbol; HCV pseudoparticles genotype 1a (H77C), Huh7 cells, luciferase 2 days after infection, average of duplicates.
Format: cell-based

Structure (SMILES)	EC50 [nM]
CCOC(=O)[C@H]1CN(C(=O)OC(C)(C)C)C[C@H]1NC(=O)c1ccc2cc1OCCCCCCOc1ccc(cc1)CNc1nc(nc(OCC(F)(F)F)n1)N2 [Example 1320]	0.1 to 100
O=C(NCC1(CN2CCCC2)CC1)c1ccc2cc1OCC=CCOc1ccc(cc1)CNc1nc(nc(OCC(F)(F)F)n1)N2 [Example 2006]	0.1 to 100
CCOC(=O)[C@H](CCCNC(=N)N)NC(=O)c1ccc2cc1OCCCCCCOc1ccc(cc1)CNc1nc(nc(OCC(F)(F)F)n1)N2 [Example 1317]	0.1 to 100
CC(C)(C)OC(=O)N1CCCC(NC(=O)c2ccc3cc2OCCCCCCCCOc2ccc(cc2)CNc2nc(nc(OCC(F)(F)F)n2)N3)C1 (centres unmarked) [Example 1012]	0.1 to 100
COC(=O)[C@H](CNS(C)(=O)=O)NC(=O)c1ccc2cc1OCCCCCCOc1ccc(cc1)CNc1nc(nc(OCC(F)(F)F)n1)N2 [Example 1702]	0.1 to 100
CN(C)CC(C)(C)CNC(=O)c1ccc2cc1OCCCCCCCCOc1ccc(cc1)CNc1nc(nc(OCC(F)(F)F)n1)N2 [Example 1010]	0.1 to 100
CC(C)(C)OC(=O)N1CCC2(CCN(C(=O)c3ccc4cc3OCCCCCCCCOc3ccc(cc3)CNc3nc(nc(OCC(F)(F)F)n3)N4)C2)C1 (centres unmarked) [Example 1109]	100 to 1000
CN(C)CC(C)(C)CNC(=O)c1ccc2cc1OCCCC(O)C(O)CCCOc1ccc(cc1)CNc1nc(nc(OCC(F)(F)F)n1)N2 (centres unmarked) [Example 1022]	0.1 to 100
CC(C)(C)OC(=O)N1CCCC(C(NC(=O)c2ccc3cc2OCCOCCOCCOc2ccc(cc2)CNc2nc(nc(OCC(F)(F)F)n2)N3)C(=O)O)C1 (centres unmarked) [Example 1605]	0.1 to 100
COC(=O)c1ccc2cc1OCCCCCCOc1ccc(cc1)CNc1nc(nc(OCC(F)(F)F)n1)N2 [Example 1301]	100 to 1000
CC(C)(C)OC(=O)NC[C@H](NC(=O)c1ccc2cc1OCCCCCCOc1ccc(cc1)CNc1nc(nc(OCC(F)(F)F)n1)N2)C(N)=O [Example 1700]	0.1 to 100
O=C(NCC1(CN2CCCC2)CC1)c1ccc2cc1OCCCNCCCOc1cccc(c1)CNc1nc(nc(OCC(F)(F)F)n1)N2 [Example 3025]	0.1 to 100
COC(=O)c1ccc2cc1OCCCN(C(=O)OC(C)(C)C)CCCOc1ccc(cc1)CNc1nc(nc(OCC(F)(F)F)n1)N2 [Example 3001]	0.1 to 100
COC(=O)[C@@H](CNC(=O)OC(C)(C)C)NC(=O)c1ccc2cc1OCCCCCCOc1ccc(cc1)CNc1nc(nc(OCC(F)(F)F)n1)N2 [Example 1309]	100 to 1000
COC(=O)CCCNC(=O)c1ccc2cc1OCCCCCCCCOc1ccc(cc1)CNc1nc(nc(OCC(F)(F)F)n1)N2 [Example 1101]	0.1 to 100
CN(C)CC(C)(C)CNC(=O)c1ccc2cc1OCCCCCCOc1cccc(c1)CNc1nc(nc(OCC(F)(F)F)n1)N2 [Example 1804]	100 to 1000
FC(F)(F)COc1nc2nc(n1)NC1(CC1)c1ccc(cc1)OC/C=C/COc1cccc(c1)N2 [Example 2008]	0.1 to 100
CN1CCCOc2ccc(cc2)CNc2nc(nc(OCC(F)(F)F)n2)Nc2ccc(C(=O)NCC3(CN4CCCC4)CC3)c(c2)OCCC1 [Example 3010]	0.1 to 100
O=C(O)CNC(=O)c1ccc2cc1OCCCCCCCCOc1ccc(cc1)CNc1nc(nc(OCC(F)(F)F)n1)N2 [Example 1131]	100 to 1000
FC(F)(F)COc1nc2nc(n1)Nc1cccc(c1)OCC=CCOc1cccc(c1)N2 [Example 2003]	0.1 to 100
CC(C)(C)OC(=O)N1CCCC1CC(NC(=O)c1ccc2cc1OCCCCCCOc1ccc(cc1)CNc1nc(nc(OCC(F)(F)F)n1)N2)C(=O)O (centres unmarked) [Example 1407]	0.1 to 100
CC(C)(C)OC(=O)NC[C@H](NC(=O)c1ccc2cc1OCCCCCCOc1ccc(cc1)CNc1nc(nc(OCC(F)(F)F)n1)N2)C(=O)O [Example 1560]	0.1 to 100
CC(C)(C)OC(=O)N1CCCOc2ccc(cc2)CNc2nc(nc(OCC(F)(F)F)n2)Nc2ccc(C(=O)NCC3(CN4CCCC4)CC3)c(c2)OCCC1 [Example 3003]	0.1 to 100
O=C(NCC1(CN2CCCC2)CC1)c1ccc2cc1OCCCCCCCCOc1ccc(cc1)CNc1nc(nc(OCC(F)(F)F)n1)N2 [Example 1102]	0.1 to 100
COC(=O)[C@H](CNC(=O)OC(C)(C)C)NC(=O)c1ccc2cc1OCCOCCOCCOc1ccc(cc1)CNc1nc(nc(OCC(F)(F)F)n1)N2 [Example 1604]	0.1 to 100
CCCN1CCCOc2ccc(cc2)CNc2nc(nc(OCC(F)(F)F)n2)Nc2ccc(C(=O)NCC3(CN4CCCC4)CC3)c(c2)OCCC1 [Example 3012]	0.1 to 100
CNC(=O)NC[C@H](NC(=O)c1ccc2cc1OCCCCCCOc1ccc(cc1)CNc1nc(nc(OCC(F)(F)F)n1)N2)C(=O)O [Example 1707]	0.1 to 100
CNC(=O)NC[C@H](NC(=O)c1ccc2cc1OCCCCCCOc1ccc(cc1)CNc1nc(nc(OCC(F)(F)F)n1)N2)C(=O)OC [Example 1706]	0.1 to 100

Structure (SMILES)	EC50 [nM]
COC(=O)CNC(=O)c1ccc2cc1OCCCCCCCCOc1ccc(cc1)CNc1nc(nc(OCC(F)(F)F)n1)N2 [Example 1104]	100 to 1000
CCOC(=O)[C@@H]1CN(C(=O)OC(C)(C)C)C[C@H]1NC(=O)c1ccc2cc1OCCCCCCOc1ccc(cc1)CNc1nc(nc(OCC(F)(F)F)n1)N2 [Example 1308]	0.1 to 100
CN(C)CC(C)(C)CNC(=O)c1ccc2cc1OCC=CCOc1ccc(cc1)CNc1nc(nc(OCC(F)(F)F)n1)N2 [Example 2007]	100 to 1000
N=C(N)NCCC[C@H](NC(=O)c1ccc2cc1OCCCCCCOc1ccc(cc1)CNc1nc(nc(OCC(F)(F)F)n1)N2)C(=O)O [Example 1402]	0.1 to 100
N=C(N)CNC(=O)c1ccc2cc1OCCCCCCCCOc1ccc(cc1)CNc1nc(nc(OCC(F)(F)F)n1)N2 [Example 1107]	0.1 to 100
COC(=O)C(NC(=O)c1ccc2cc1OCCCCCCOc1ccc(cc1)CNc1nc(nc(OCC(F)(F)F)n1)N2)C1CCN(C(=O)OC(C)(C)C)C1 (centres unmarked) [Example 1310]	0.1 to 100
COC(=O)c1ccc2cc1OCCCCOc1cccc(c1)CNc1nc(nc(OCC(F)(F)F)n1)N2 [Example 1801]	100 to 1000
O=C(O)CCCCNC(=O)c1ccc2cc1OCCCCCCOc1ccc(cc1)CNc1nc(nc(OCC(F)(F)F)n1)N2 [Example 1408]	0.1 to 100
N=C(N)NCCC[C@H](NC(=O)c1ccc2cc1OCCCCCCOc1ccc(cc1)CNc1nc(nc(OCC(F)(F)F)n1)N2)C(N)=O [Example 1313]	0.1 to 100
COC(=O)N1CCCOc2ccc(cc2)CNc2nc(nc(OCC(F)(F)F)n2)Nc2ccc(C(=O)NCC3(CN4CCCC4)CC3)c(c2)OCCC1 [Example 3004]	0.1 to 100
O=C1NCCCCCCNc2nc(nc(OCC(F)(F)F)n2)Nc2cccc1c2 [Example 1001]	1000 to 50000
CC(C)(C)OC(=O)NC1(C(=O)O)CCN(C(=O)c2ccc3cc2OCCCCCCCCOc2ccc(cc2)CNc2nc(nc(OCC(F)(F)F)n2)N3)C1 (centres unmarked) [Example 1018]	1000 to 50000
CC(C)(C)NC(=O)N1CCCCOc2cc(ccc2C(=O)NCC2(CN3CCCC3)CC2)Nc2nc(nc(OCC(F)(F)F)n2)NCc2ccc(cc2)OCCC1 [Example 3018]	0.1 to 100
O=C(NCC1(C(=O)O)CCNCC1)c1ccc2cc1OCCCCCCOc1ccc(cc1)CNc1nc(nc(OCC(F)(F)F)n1)N2 [Example 1504]	0.1 to 100
O=C(O)CC1CCN(C(=O)c2ccc3cc2OCCCCCCCCOc2ccc(cc2)CNc2nc(nc(OCC(F)(F)F)n2)N3)C1 (centres unmarked) [Example 1132]	1000 to 50000
CC(=O)N1CCCCOc2cc(ccc2C(=O)NCC2(CN3CCCC3)CC2)Nc2nc(nc(OCC(F)(F)F)n2)NCc2ccc(cc2)OCCC1 [Example 3022]	0.1 to 100
COC(=O)c1ccc2cc1OCC=CCOc1ccc(cc1)CNc1nc(nc(OCC(F)(F)F)n1)N2 [Example 2005]	0.1 to 100
CC(C)(C)OC(=O)N1CCCCOc2cc(ccc2C(=O)NCC2(CN3CCCC3)CC2)Nc2nc(nc(OCC(F)(F)F)n2)NCc2ccc(cc2)OCCC1 [Example 3016]	0.1 to 100
N=C(N)NCCCCNC(=O)c1ccc2cc1OCCCCCCOc1ccc(cc1)CNc1nc(nc(OCC(F)(F)F)n1)N2 [Example 1314]	0.1 to 100
FC(F)(F)COc1nc2nc(n1)Nc1cccc(c1)OCC=CCOc1ccc(cc1)CN2 [Example 2001]	0.1 to 100
CCOC(=O)N1CCCOc2ccc(cc2)CNc2nc(nc(OCC(F)(F)F)n2)Nc2ccc(C(=O)NCC3(CN4CCCC4)CC3)c(c2)OCCC1 [Example 3005]	0.1 to 100
O=C(NC(Cc1ccccc1)C(=O)O)c1ccc2cc1OCCCCCCOc1ccc(cc1)CNc1nc(nc(OCC(F)(F)F)n1)N2 (centres unmarked) [Example 1405]	0.1 to 100
COC(=O)[C@H](CCN)NC(=O)c1ccc2cc1OCCCCCCOc1ccc(cc1)CNc1nc(nc(OCC(F)(F)F)n1)N2 [Example 1502]	0.1 to 100
CN(C)CC(C)(C)CNC(=O)c1ccc2cc1OCCCCOc1cccc(c1)CNc1nc(nc(OCC(F)(F)F)n1)N2 [Example 1802]	0.1 to 100
O=C(NCC1(CN2CCCC2)CC1)c1ccc2cc1OCCCCNCCCOc1ccc(cc1)CNc1nc(nc(OCC(F)(F)F)n1)N2 [Example 3017]	0.1 to 100
COc1nc2nc(n1)OCc1cccc(c1)Nc1nc(nc(OCC(F)(F)F)n1)NCCN2 [Example 1002]	1000 to 50000
CC(C)(C)OC(=O)N1C[C@H](C(=O)O)[C@H](NC(=O)c2ccc3cc2OCCCCCCOc2ccc(cc2)CNc2nc(nc(OCC(F)(F)F)n2)N3)C1 [Example 1558]	0.1 to 100

Same assay, conditions: Hepatitis C virus, Huh-7, 48 h, numeric value; HCV pseudoparticles genotype 1a (H77C), Huh7 cells, luciferase 2 days after infection, average of duplicates

Structure (SMILES)	EC50 [nM]
CN(C)CC(C)(C)CNC(=O)c1ccc2cc1OCCCCCCCCOc1ccc(cc1)CNc1nc(nc(OCC(F)(F)F)n1)N2 [Example 1010]	5.14
CC(C)(C)OC(=O)N1CCCC(C(NC(=O)c2ccc3cc2OCCOCCOCCOc2ccc(cc2)CNc2nc(nc(OCC(F)(F)F)n2)N3)C(=O)O)C1 (centres unmarked) [Example 1605]	23
CN(C)CC(C)(C)CNC(=O)c1ccc2cc1OCCCCCCOc1cccc(c1)CNc1nc(nc(OCC(F)(F)F)n1)N2 [Example 1804]	239
CN(C)CC(C)(C)CNC(=O)c1ccc2cc1OCC=CCOc1ccc(cc1)CNc1nc(nc(OCC(F)(F)F)n1)N2 [Example 2007]	159
CC(C)(C)OC(=O)NC1(C(=O)O)CCN(C(=O)c2ccc3cc2OCCCCCCCCOc2ccc(cc2)CNc2nc(nc(OCC(F)(F)F)n2)N3)C1 (centres unmarked) [Example 1018]	5640

Same assay, conditions: read-out: EC50

Structure (SMILES)	EC50 [nM]
COC(=O)c1ccc2cc1OCCCC=CCCCOc1ccc(cc1)CNc1nc(nc(OCC(F)(F)F)n1)N2 [Example 1019]	100 to 1000
NC[C@H](NC(=O)c1ccc2cc1OCCCCCCOc1ccc(cc1)CNc1nc(nc(OCC(F)(F)F)n1)N2)C(=O)O [Example 1559]	0.1 to 100
O=C(NC(C(=O)O)C1CCNC1)c1ccc2cc1OCCCCCCOc1ccc(cc1)CNc1nc(nc(OCC(F)(F)F)n1)N2 (centres unmarked) [Example 1553]	0.1 to 100
O=C(O)c1ccc2cc1OCCCC=CCCCOc1ccc(cc1)CNc1nc(nc(OCC(F)(F)F)n1)N2 [Example 1020]	1000 to 50000
C=C1CNCCNc2nc(nc(OCC(F)(F)F)n2)Nc2cccc(c2)CNC1 [Example 1016]	1000 to 50000
